In one series the test system is fecal water content. The series can be described thus: Pharmacodynamic model: effect of test compounds on fecal water content. To be noted: female Sprague Dawley rats, 3 mg/kg oral, feces collected 16 hrs; for % Fecal water: mean of 6. It is filed as in vivo, rat. Here is the method: Normal female Sprague Dawlev rats (Charles-River laboratories international, Hollister, Calif.), 7-8 weeks old with body weight 175-200 g were acclimated for at least 3 days before proceeding to experiments. The animals were provided food (Harlan Teklad 2018c) and water ad lib, through the experiment. Animals were randomly grouped with 6 rats per group.
The experiments were initiated by orally dosing test compounds at 3 mg/kg in volume of 10 ml/kg. Rats from control group were gavaged with the same volume of vehicle (water). After dosing, rats were placed in metabolic cages for 16 hrs (overnight). Food and water consumption were monitored. After sixteen hours, feces and urine were collected. The percent of fecal water was measured by weighing fecal samples before and after drying.
Representative data of % fecal water content are shown in Table 12 (data are expressed as means, with 6 animals per data point). The differences between control and treated groups were evaluated by one way ANOVA with Dunnett post tests. Results are significant if p<0.05.

In the next series the target is T1, rat NHE-3 (Rattus norvegicus, UniProt P26433).
T1 construct: expressed in transfected cells; host or cells: Opossum kidney (OK) cells (ATCC), electroporated
T1 sequence (P26433 29-831): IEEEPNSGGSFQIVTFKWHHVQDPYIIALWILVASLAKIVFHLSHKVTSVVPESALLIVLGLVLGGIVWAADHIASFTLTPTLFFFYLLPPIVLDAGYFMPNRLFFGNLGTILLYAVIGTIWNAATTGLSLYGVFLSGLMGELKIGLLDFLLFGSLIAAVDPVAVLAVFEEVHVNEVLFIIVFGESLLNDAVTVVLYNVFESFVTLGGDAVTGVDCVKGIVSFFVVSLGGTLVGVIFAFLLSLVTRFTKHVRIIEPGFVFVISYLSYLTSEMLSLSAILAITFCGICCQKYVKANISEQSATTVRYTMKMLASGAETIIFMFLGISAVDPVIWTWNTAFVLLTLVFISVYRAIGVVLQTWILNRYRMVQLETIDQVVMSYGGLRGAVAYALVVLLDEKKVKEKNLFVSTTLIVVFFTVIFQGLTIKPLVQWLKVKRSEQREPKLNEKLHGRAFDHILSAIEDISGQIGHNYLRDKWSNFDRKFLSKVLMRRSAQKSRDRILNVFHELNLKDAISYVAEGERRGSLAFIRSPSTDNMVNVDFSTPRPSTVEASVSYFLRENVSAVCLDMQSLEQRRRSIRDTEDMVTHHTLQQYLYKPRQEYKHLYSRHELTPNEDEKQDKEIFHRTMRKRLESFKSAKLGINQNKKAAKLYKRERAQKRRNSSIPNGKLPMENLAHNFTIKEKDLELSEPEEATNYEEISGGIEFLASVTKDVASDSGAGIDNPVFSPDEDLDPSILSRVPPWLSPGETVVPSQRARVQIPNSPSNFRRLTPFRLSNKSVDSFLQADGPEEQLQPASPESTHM
The series can be described thus: Cell-based assay of NHE-3 activity (Pharmacological Test Example 1). To be noted: for IC50: read-out: rat NHE-3 Average pIC50 (converted). In a few lines: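 OK cells electroporated with rat NHE-3, loaded with 5 uM BCECF-AM in NH4Cl-HEPES (pH 7.4) for 30 min at room temperature, then acid-loaded 10 min in Na+-free choline buffer. Na+-dependent H+ antiport read as initial rate of pH-dye change; pIC50 from 3-6 replicate averages.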

The conditions of series [1]: human absorption data; cited from earlier work.
The nature of series [2]: Determination of compound Cmax and AUC. It is filed as in vivo. The following applies: rat; Sprague-Dawley rats, oral gavage, serum 0.5-4 h; actual oral dose (mg/kg) given. In a few lines:
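Sprague-Dawley rats dosed orally by gavage at 2.5 mg/kg; serum sampled at 0.5, 1, 2 and 4 h. Acetonitrile protein precipitation, then LC/MS/MS quantitation against a standard curve.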

Series [3] in a line: Parallel artificial membrane permeability assay (PAMPA). The following applies: pH 7.4. On the technique in general: In PAMPA a lipid-coated filter parts donor from acceptor wells.
Where [4] appears, read: OK cells expressing rat NHE-3, 0-30 uM test compound, 5 uM EIPA.

Each structure is given as a SMILES string. Counter-ions that a name gives are not always drawn. Like-named read-outs stand apart in the source and are kept apart here.

On to `CN1Cc2c(Cl)cc(Cl)cc2C(c2cccc(S(=O)(=O)NCCOCCOCCNC(=O)NCCCCNC(=O)NCCOCCOCCNS(=O)(=O)c3cccc(C4CN(C)Cc5c(Cl)cc(Cl)cc54)c3)c2)C1` (stereo not shown) [Example 236, N,N′-(10,17-dioxo-3,6,21,24-tetraoxa-9,11,16,18-tetraazahexacosane-1,26-diyl)bis(3-(6,8-dichloro-2-methyl-1,2,3,4-tetrahydroisoquinolin-4-yl)benzenesulfonamide)], for which, in the series with fecal water content, the “% Fecal water (% of control)” value is recorded as 128% of control and the “% Fecal water” value is 64%. The “rat NHE-3 Average pIC50” value on rat NHE-3 (setting [4]) is over 7.
In the case of `CN1Cc2c(Cl)cc(Cl)cc2[C@H](c2ccc(S(=O)(=O)NCCOCCOCCNC(=O)CCC(=O)NCCOCCOCCNS(=O)(=O)c3ccc([C@@H]4CN(C)Cc5c(Cl)cc(Cl)cc54)cc3)cc2)C1` (single isomer, unassigned) [Example 200, N1,N4-bis(2-(2-(2-(4-((S or R)-6,8-dichloro-2-methyl-1,2,3,4-tetrahydroisoquinolin-4-yl)phenylsulfonamido)ethoxy)ethoxy)ethyl)succinamide bis-hydrochloride salt], in the series on fecal water content, the “% Fecal water (% of control)” value is listed as 124% of control and the “% Fecal water” value came out at 62%. For the same molecule, on rat NHE-3 (setting [4]), the IC50 was under 100 nM.
As to `O=C(O)c1cc(/N=N/c2ccc(O)c(C(=O)O)c2)ccc1O` [olsalazine], in series [1], the “% FA” value is reported as 2.3%.
Turning to `C=CCOc1ccccc1OCC(O)CNC(C)C` (stereo not shown) [oxprenolol], the “% FA” value in series [1] is 97%.
`OC[C@H]1O[C@@H](O[C@@H]2[C@@H](CO)OC(O)(CO)[C@H]2O)[C@H](O)[C@@H](O)[C@H]1O` (mixture of isomers) [lactulose, reference compound]: the “% FA” value in series [1] was 0.6%.
`O=C(O)c1cc(/N=N/c2ccc(S(=O)(=O)Nc3ccccn3)cc2)ccc1O` [sulfasalazine, reference compound]: the “% FA” value in series [1] is given as 12%.
For `CC(C)NCC(O)COc1cccc2[nH]ccc12` (stereo not shown) [pindolol], the “% FA” value in series [1] is listed as 92%.
As for `CN1Cc2c(Cl)cc(Cl)cc2[C@H](c2ccc(S(=O)(=O)NCCOCCOCCOCCNC(=O)NCCOCCOCCOCCNS(=O)(=O)c3ccc([C@@H]4CN(C)Cc5c(Cl)cc(Cl)cc54)cc3)cc2)C1` (single isomer, unassigned) [Example 250, (S or R)—N,N′-(13-oxo-3,6,9,17,20,23-hexaoxa-12,14-diazapentacosane-1,25-diyl)bis(4-((S or R)-6,8-dichloro-2-methyl-1,2,3,4-tetrahydroisoquinolin-4-yl)benzenesulfonamide)], in the series on fecal water content, the “% Fecal water (% of control)” value is 120% of control and the “% Fecal water” value came to 60%. Besides, the IC50 on rat NHE-3 is under 100 nM.
One may read the AUC as concentration integrated over time. A low value points to less exposure. As a reminder, the Cmax is the maximum level reached in the sampled fluid or tissue. In series [2], `CN1Cc2c(Cl)cc(Cl)cc2C(c2ccc(S(=O)(=O)NCCOCCOCCNC(=O)CCC(=O)NCCOCCOCCNS(=O)(=O)c3ccc(C4CN(C)Cc5c(Cl)cc(Cl)cc54)cc3)cc2)C1` (stereo not shown) [Example 177, N1,N4-bis(2-(2-(2-(4-(6,8-dichloro-2-methyl-1,2,3,4-tetrahydroisoquinolin-4-yl)phenylsulfonamido)ethoxy)ethoxy)ethyl)succinamide] gave an area under the curve (AUC) of under 4 ng·h/mL and a Cmax of under 3.2 ng/mL. In addition, in the series with fecal water content, the “% Fecal water (% of control)” value is given as 121% of control and the “% Fecal water” value was 60%. Besides, on rat NHE-3, the “rat NHE-3 Average pIC50” value was over 7.
As for `CN1Cc2c(Cl)cc(Cl)cc2C(c2ccc(S(=O)(=O)NCCOCCOCCNC(=O)NCCCCNC(=O)NCCOCCOCCNS(=O)(=O)c3ccc(C4CN(C)Cc5c(Cl)cc(Cl)cc54)cc3)cc2)C1` (stereo not shown) [Example 238, N,N′-(10,17-dioxo-3,6,21,24-tetraoxa-9,11,16,18-tetraazahexacosane-1,26-diyl)bis(4-(6,8-dichloro-2-methyl-1,2,3,4-tetrahydroisoquinolin-4-yl)benzenesulfonamide)], in the series with fecal water content, the “% Fecal water (% of control)” value is listed as 121% of control and the “% Fecal water” value is 60%.
As usually defined, the Papp A→B is how fast a substance crosses the layer from the apical side. High values mean ready permeation, low ones poor permeation. In series [3], `C/C(=C\c1cc(F)c(Oc2ccc(S(=O)(=O)NCCOCCOCCOCCNC(=O)CCCCCCC(=O)NCCOCCOCCOCCNS(=O)(=O)c3ccc(Oc4c(F)cc(/C=C(\C)C(=O)N=C(N)N)cc4F)cc3)cc2)c(F)c1)C(=O)N=C(N)N` [Example 47, N,N′-(13,20 dioxo-3,6,9, 24, 27, 30-hexaoxa-12, 21-diazadotriacontane-1,32-diyl)bis[(E)-N-(diaminomethylene)-3-(3,5-difluoro-4-(4-sulfamoylphenoxy)phenyl)-2-methylacrylamide]] displayed a Papp A→B at 3 h, 20 uM of under 0.01 ×10⁻⁶ cm/s. Also, the “rat NHE-3 Average pIC50” value on rat NHE-3 (setting [4]) is listed as over 7.
In series [2], `CN1Cc2c(Cl)cc(Cl)cc2C(c2cccc(S(=O)(=O)NCCOCCOCCNC(=O)c3ccc(C(=O)NCCOCCOCCNS(=O)(=O)c4cccc(C5CN(C)Cc6c(Cl)cc(Cl)cc65)c4)cc3)c2)C1` (stereo not shown) [Example 234, N1,N4-bis(2-(2-(2-(3-(6,8-dichloro-2-methyl-1,2,3,4-tetrahydroisoquinolin-4-yl)phenylsulfonamido)ethoxy)ethoxy)ethyl)terephthalamide] displayed an AUC of under 2 ng·h/mL and a Cmax of under 2 ng/mL. Moreover, in the series with fecal water content, the “% Fecal water (% of control)” value is recorded as 117% of control and the “% Fecal water” value is given as 58%. Besides, at rat NHE-3, the “rat NHE-3 Average pIC50” value was in the range of 5 to 6.
Turning to `CN1Cc2c(Cl)cc(Cl)cc2C(c2cccc(NS(=O)(=O)NCCP(=O)(O)O)c2)C1` (stereo not shown) [Example 31, 2-(N-(3-(6,8-dichloro-2-methyl-1,2,3,4-tetrahydroisoquinolin-4-yl)phenyl)sulfamoylamino)ethylphosphonic acid], in series [3], the apparent permeability from apical to basolateral (Papp A→B) at 3 h, 20 uM stood at 0.61 ×10⁻⁶ cm/s. For the same molecule, the “rat NHE-3 Average pIC50” value on rat NHE-3 (setting [4]) lay in the range of 5 to 6.
For the molecule `CN1Cc2c(Cl)cc(Cl)cc2C(c2ccc(S(=O)(=O)NCCOCCOCCNC(=O)Nc3ccc(NC(=O)NCCOCCOCCNS(=O)(=O)c4ccc(C5CN(C)Cc6c(Cl)cc(Cl)cc65)cc4)cc3)cc2)C1` (stereo not shown) [Example 239, N,N′-(2,2′-(2,2′-(2,2′-(1,4-phenylenebis(azanediyl))bis(oxomethylene)bis(azanediyl)bis(ethane-2,1-diyl))bis(oxy)bis(ethane-2,1-diyl))bis(oxy)bis(ethane-2,1-diyl))bis(4-(6,8-dichloro-2-methyl-1,2,3,4-tetrahydroisoquinolin-4-yl)benzenesulfonamide)], in the series with fecal water content, the “% Fecal water (% of control)” value is 114% of control and the “% Fecal water” value was 58%.
In series [2], `CN1Cc2c(Cl)cc(Cl)cc2C(c2ccc(S(=O)(=O)NCCOCCOCCNC(=O)COCC(=O)NCCOCCOCCNS(=O)(=O)c3ccc(C4CN(C)Cc5c(Cl)cc(Cl)cc54)cc3)cc2)C1` (stereo not shown) [Example 178, 2,2′-oxybis(N-(2-(2-(2-(4-(6,8-dichloro-2-methyl-1,2,3,4-tetrahydroisoquinolin-4-yl)phenylsulfonamido)ethoxy)ethoxy)ethyl)acetamide)] returned an AUC of under 2 ng·h/mL and a Cmax of under 2 ng/mL. Also, in the series with fecal water content, the “% Fecal water (% of control)” value is listed as 118% of control and the “% Fecal water” value stood at 59%. Further, the “rat NHE-3 Average pIC50” value at rat NHE-3 (setting [4]) is given as 6 to 7.
With `CN1Cc2c(Cl)cc(Cl)cc2C(c2cccc(S(=O)(=O)NCCOCCOCCNC(=O)Nc3ccc(NC(=O)NCCOCCOCCNS(=O)(=O)c4cccc(C5CN(C)Cc6c(Cl)cc(Cl)cc65)c4)cc3)c2)C1` (stereo not shown) [Example 237, N,N′-(2,2′-(2,2′-(2,2′-(1,4-phenylenebis(azanediyl))bis(oxomethylene)bis(azanediyl)bis(ethane-2,1-diyl))bis(oxy)bis(ethane-2,1-diyl))bis(oxy)bis(ethane-2,1-diyl))bis(3-(6,8-dichloro-2-methyl-1,2,3,4-tetrahydroisoquinolin-4-yl)benzenesulfonamide)], in the series with fecal water content, the “% Fecal water (% of control)” value is reported as 120% of control and the “% Fecal water” value was 60%. At rat NHE-3 (setting [4]), the “rat NHE-3 Average pIC50” value is over 7.
Consider `NC(N)=Nc1nc(-c2cccc(N3CCN(C(=O)[C@H](O)[C@@H](O)[C@H](O)[C@H](O)CO)CC3)c2)c2cc(Cl)ccc2n1` [Example 63, 2-(6-chloro-4-(3-(4-((2R,3S,4R,5R)-2,3,4,5,6-pentahydroxyhexanoyl)piperazin-1-yl)phenyl)quinazolin-2-yl)guanidine], for which, in series [3], the apical-to-basolateral permeability (Papp A→B) at 3 h, 20 uM was determined as 0.43 ×10⁻⁶ cm/s. Moreover, on rat NHE-3 (setting [4]), the “rat NHE-3 Average pIC50” value lay within 5 to 6.
On the same counts, the results for `NC(N)=Nc1nc(-c2ccc(N3CCN(CCO)CC3)cc2)c2cc(Cl)ccc2n1` [Example 69, 2-(6-chloro-4-(4-(4-(2-hydroxyethyl)piperazin-1-yl)phenyl)quinazolin-2-yl)guanidine] are 0.3 ×10⁻⁶ cm/s and 6 to 7.
For `N=C(N)N1CCN(c2cccc(-c3nc(N=C(N)N)nc4ccc(Cl)cc34)c2)CC1` [Example 60, 4-(3-(6-chloro-2-(diaminomethyleneamino)quinazolin-4-yl)phenyl)piperazine-1-carboximidamide], in that order: 0.99 ×10⁻⁶ cm/s and 6 to 7.
